# “Also recorded” adds a separate entry of the source.
# B1: IFN-β: Recombinant mouse IFN-β protein (protein, UniProt P01575 22-182, looked up)
# Interferon beta: INYKQLQLQERTNIRKCQELLEQLNGKINLTYRADFKIPMEMTEKMQKSYTAFAIQEMLQNVFLVFRNNFSSTGWNETIVVRLLDELHQQTVFLKTVLEEKQEERLTWEMSSTALHLKSYYWRVQRYLKLMKYNSYAWMVVRAEIFRNFLIIRRLTRNFQN
# Legend:
# [1] = system: paclitaxel-treated mice; assay: mechanical paw withdrawal threshold (von Frey) in paclitaxel-induced CIPN; assay type: in vivo, mouse; details: intrathecal 10 μg, paclitaxel-induced pain
# [2] = system: cultured DRG neurons; assay: Western blot of cultured DRG neurons treated with IFN-α, IFN-β, ISRIB or poly (I:C); assay type: cell-based, mouse; details: for AKT phosphorylation / ERK and eIF4E phosphorylation / downstream JAK/STAT signaling pathways / BiP expression or signaling via PKR and downstream p-eIF2α / PKR phosphorylation / mTOR or ribosomal protein S6 phosphorylation: 300 U/mL; for BiP expression or signaling via PKR and downstream p-eIF2α: 1-6 h; for PKR phosphorylation: long exposure (24 h); for mTOR or ribosomal protein S6 phosphorylation: time course of 6 h
# Procedure: Primary cell culture of mouse DRG neurons and Western blot. Cultured primary DRG neurons were used to test the effects of IFN-α [(300 units (U)/mL] and IFN-β [(300 units (U)/mL] application. For these experiments, mice were anesthetized with isoflurane and killed by decapitation. Then DRGs, from all spinal levels, were dissected and placed in chilled Hanks balanced-salt solution (HBSS, Invitrogen) until processed. Dorsal root ganglia were digested in 1 mg/mL collagenase A (Roche, Mannheim, Germany) for 25 minutes at 37° C. then subsequently digested in a 1:1 mixture of 1 mg/mL collagenase D and papain (Roche) for 20 minutes at 37° C. After this step, dorsal root ganglia were then triturated in a 1:1 mixture of 1 mg/mL trypsin inhibitor (Roche) and bovine serum albumin (BioPharm Laboratories, Bluffdale, Utah), then filtered through a 70 μm cell strainer (Corning, N.Y.). Cells were pelleted then resuspended in DMEM/F12 with GlutaMAX (Thermo Fisher Scientific, MA) containing 10% fetal bovine serum (FBS; Thermo Fisher Scientific), 5 ng/mL NGF, 1% penicillin and streptomycin, and […] to inhibit mitosis of non-neuronal cells and were distributed evenly in a 6-well plate coated with poly-D-lysine (Becton Dickinson, NJ). DRG neurons were maintained in a 37° C. incubator containing 5% CO2 with a media change every other day. On day 6, DRG neurons were treated with either vehicle, IFN-α or IFN-β for 1, 3, 6 and 24 h. Following treatments, cells were rinsed with chilled 1×PBS buffer, harvested in 200 μL of RIPA lysis buffer (50 mM Tris, pH 7.4, 150 mM NaCl, 1 mM EDTA, pH 8.0, and 1% Triton X-100) containing protease and phosphatase inhibitors (Sigma-Aldrich), and then sonicated for 5 seconds. To clear debris, samples were centrifuged at 14,000 rpm for 15 min at 4° C. Ten to 15 μg of protein was loaded into each well and separated by a 10% SDS-PAGE gel. Proteins were transferred to a 0.45 PVDF membrane (Millipore, MA) at 30 V overnight at 4° C. Subsequently, membranes were blocked with 5% non-fat dry milk in 1× Tris buffer solution containing Tween 20 (TTBS) for at least 2 h. Membranes were washed 3 times for 10 minutes each (3×10) in 1×TTBS, then incubated with primary antibodies overnight at 4° C. The following day, membranes were washed 3×10 each then incubated with the corresponding secondary antibodies at room temperature for 1 h. After incubation, membranes were washed with 1×TTBS 3×10 each. Signals were detected using Immobilon Western Chemiluminescent HRP Substrate (Millipore) and then visualized with Bio-Rad ChemiDoc Touch. Membranes were stripped using Restore Western Blot Stripping buffer (Thermo Fisher Scientific) and reprobed with another antibody. Analysis was performed using Image lab 6.0.1 software for Mac (Bio-Rad, Hercules, Calif.).
# [3] = system: SNI mice; assay: mechanical withdrawal threshold (von Frey) after SNI; assay type: in vivo, mouse; details: WT and 4EKI, 10 μg i.t., 2 hours after injection on each CPP conditioning day
# Procedure: (§1) Surgery. Spared nerve injury (SNI) was performed by the ligation and cutting of the tibial and peroneal branches of the left sciatic nerve trifurcation, leaving the sural branch intact as previously described (Decosterd and Woolf, 2000). Sham surgeries were performed the same way but without cutting the nerve. Mice were allowed to recover for 2 weeks following surgery.
# Mechanical withdrawal threshold. Tactile sensitivity was measured by probing the left outer surface of the left hindpaw with a series of calibrated von Frey filaments. Mechanical withdrawal thresholds were assessed in all animals before (baseline) and after (2 weeks) surgery to confirm neuropathy. Withdrawal thresholds were calculated using the up-down method (Chaplan et al., 1994).
# [4] = system: SNI mice; assay: conditioned place preference (CPP) after SNI; assay type: in vivo, mouse; details: 10 μg i.t.
# Procedure: Conditioned Place Preference. A previously published CPP protocol from the Walters laboratory protocol was used (Yang et al., 2014). The CPP box consisted of one black and one white chamber connected by a striped chamber. CPP was conducted in a dark room with a single low lumens light source (Maia 69E120-WH). The middle chamber of the CPP box was brightly illuminated to discourage mice from spending time in the middle chamber. […] On day 1 of testing (preconditioning), each mouse was permitted to explore the middle and black (but not white) chambers for 30 minutes. […] On the last day of CPP, each mouse was placed in the middle chamber with unrestricted access to all chambers and video-recorded for 10 min. Data are presented as the percent change in time spent in the drug-paired chambered compared to the control (vehicle or sham for each genotype or surgery). This was calculated by dividing each animal's time spent in the white box by the control average, multiplying by 100 and then subtracting 100.
# as §1
# [5] = system: SNI mice; details: neuropathic mice (Shiers et al., 2018); cited from earlier work
# [6] = system: infralimbic cortex; details: neuropathic mice (Shiers et al., 2018); cited from earlier work
# [7] = system: mice; assay: mechanical paw withdrawal threshold (von Frey) after type I IFN or poly (I:C); assay type: in vivo, mouse; details: i.pl. 300 U/25 μL; for hind paw mechanical hypersensitivity: female mice; for mechanical hypersensitivity to von Frey filament stimulation: male mice
# Procedure: (§2) Behavior. Mice were housed on 12-hour light/dark cycles with food and water available ad libitum. Mice were randomized to groups from multiple cages to avoid using mice from experimental groups that were cohabitating. Sample size was estimated by performing a power calculation using G*Power (version 3.1.9.2). With 80% power and an expectation of d=2.2 effect size in behavioral experiments, and a set to 0.05, the sample size required was calculated as n=6 per group. The inventors therefore sought to have at least n=6 sample in all behavioral experiments. SD (set at 0.3) for the power calculation was based on previously published mechanical threshold data from the inventors' lab (Moy et al., 2017). Animals were habituated for 1 hour to clear acrylic behavioral chambers before beginning the experiment. For intraplantar injections, drugs were injected in a total volume of 25 μL through a 30-gauge needle. For intraperitoneal injections, drugs were administered in a volume of 100 μL Mechanical paw withdrawal thresholds in mice were measured using the up-down method (Chaplan et al., 1994) with calibrated von Frey filaments (Stoelting Company, WoodDale, Ill.). Thermal latency was measured using a Hargreaves device (IITC Life Science) (Hargreaves et al., 1988) with heated glass settings of 29° C., 40% active laser power, and 20 sec cutoff were used. The experimenter was blinded to the genotype of the mice and the drug condition in all experiments.
# [8] = system: mice; assay: thermal latency (Hargreaves) after type I IFN or poly (I:C); assay type: in vivo, mouse; details: i.pl. 300 U/25 μL; for thermal hypersensitivity: female mice; for paw withdrawal latency to thermal stimulation: male mice
# Procedure: as §2
# [9] = system: eIF4E; assay: immunocytochemistry of p-eIF4E in cultured DRG neurons; assay type: cell-based, mouse; details: 300 U/mL, one-hour stimulation
# Procedure: Immunofluorescence. For primary neuronal cultures, DRG neurons were harvested and cultured for 6 days according to the protocol described above with the exception that cells were distributed evenly on poly-D-lysine-coated 8-well chamber slide with removable wells (cat #12-565-8, Fisher Scientific). After treatments, cells were fixed in ice-cold 10% formalin in 1×PBS for 1 h and processed for immunocytochemistry (ICC). Cells were washed with 1×PBS and permeabilized in 1×PBS containing 10% heat-inactivated normal goat serum (NGS; Atlanta Biologicals, Atlanta, Ga.) and 0.02% Triton X-100 (Sigma) in 1×PBS for 30 min and then blocked in 10% NGS in 1×PBS for 2 h. […] Images were taken using an Olympus FluoView 1200 confocal microscope and analyzed with FIJI for Mac OS X. Images shown are representative of samples taken from 3 separate wells and presented as projections of Z stacks. Using ImageJ, the corrected total cell fluorescence (CTCF) was calculated to determine the intensity of the signal between experimental groups. To do so, the integrated density and the area, as well as the background noise was measured and the CTCF calculated as equal to: the integrated density −(area of selected cell×mean fluorescence of background readings). CTCF values from all experimental treatment groups were normalized to vehicle groups and expressed as normalized CTCF.
# [10] = system: DRG neurons; assay: patch-clamp electrophysiology of DRG neurons exposed to IFN-α; details: 300 U/mL, ~1 h
# [11] = system: cultured mouse DRG neurons; assay: microelectrode array (MEA) recordings of cultured DRG neurons exposed to IL-6; assay type: cell-based; details: IL-6 100 ng/ml, tomivosertib 25 nM co-treatment
# Procedure: Extracellular electrophysiology. Substrate-integrated microelectrode array (MEA) recordings were performed using PDL and laminin pre-treated 12-well MEA plates (Axion Biosystems, USA) and an Axion Maestro recording system. DRG sensory neurons were dissected, dissociated, and seeded as previously described (Moy et al., 2017). […] Cultures were maintained at 37° C., 5% CO2, and ≥90% humidity throughout the recordings. Briefly, 30 min baseline recordings were carried out following a 30 min acclimation period. […] Recordings were then collected continuously for 3 hours. […] Online and offline MEA data analysis was performed using Axion's AxIS, NeuralMetrics Tools, and NeuroExplorer (NeuroExplorer, USA). Physiologically relevant extracellular action potentials were defined as previously described^29.
# [12] = system: DRG neurons; assay: whole-cell patch clamp of cultured DRG neurons treated with IL-6 and eFT508; assay type: cell-based, mouse
# Procedure: Phosphorylation of the 5′ cap-binding protein eIF4E by MAPK interacting kinases MNK1/2 is important for nociceptor sensitization and the development of chronic pain. IL-6 induced DRG nociceptor excitability is attenuated in mice lacking eIF4E phosphorylation, in MNK1/2^−/− mice and by the nonselective MNK1/2 inhibitor cercosporamide. […] Dorsal root ganglion (DRG) neurons were cultured from male and female ICR mice, 4-7 weeks old. […] Whole-cell patch clamp recordings were done on small diameter neurons (20-30 pF) to measure membrane excitability in response to ramp depolarization. […] These findings are consistent with a model wherein MNK-eIF4E signaling controls the translation of signaling factors that regulate T-type VGCCs in response to IL-6 treatment.
molecule,measurement,setting,value
COc1ccc(-c2ccc3c(N4CCOC[C@@H]4C)nc(N4CCOC[C@@H]4C)nc3n2)cc1CO [AZD8055],mechanical allodynia / hypersensitivity after first injection,[1],robust reduction in mechanical hypersensitivity; also recorded: relieves mechanical allodynia
same,mechanical allodynia / hypersensitivity after second (subsequent) injection,[1],the magnitude of this effect was decreased; also recorded: no significant effects were observed
O=C(COc1ccc(Cl)cc1)NC1CCC(NC(=O)COc2ccc(Cl)cc2)CC1 (centres unmarked) [ISRIB],PKR phosphorylation after 24 h IFN-α (300 U/mL) in the presence of ISRIB,[2]; ISRIB 200 nM,no changes
same,components of the signaling pathways activated after IFN-α or IFN-β application,[2]; ISRIB 200 nM,did not modulate
Clc1cccc(Cl)c1N=C1NCCN1 [clonidine],mechanical hypersensitivity,[3],significantly attenuated mechanical hypersensitivity
same,time spent in the drug-paired chamber vs 4EKI sham,[4]; 4EKI SNI mice,no significant difference
same,more time in the clonidine-paired chamber vs WT sham,[4]; WT SNI female mice,~30%
CN(C)C(=N)N=C(N)N [metformin],cognitive deficits,[5],attenuated
same,AIS shrinkage in the IL,[6],attenuated
IFN-α,hind paw mechanical hypersensitivity,[7],increased hind paw mechanical hypersensitivity
same,mechanical hypersensitivity to von Frey filament stimulation,[7],rapid mechanical hypersensitivity
same,thermal hypersensitivity,[8],no significant changes
same,paw withdrawal latency to thermal stimulation,[8],no significant changes
same,AKT phosphorylation,[2],stimulated AKT phosphorylation
same,ERK and eIF4E phosphorylation,[2],increase
same,downstream JAK/STAT signaling pathways,[2],rapidly activated
same,BiP expression or signaling via PKR and downstream p-eIF2α,[2],did not modify
same,PKR phosphorylation,[2],did not modify
same,mTOR or ribosomal protein S6 phosphorylation,[2],did not observe any changes
same,phosphorylation of eIF4E (ICC),[9],stimulated phosphorylation of eIF4E
same,"excitability, number of action potentials elicited by ramp current injections",[10],elevated excitability
same,latency to the first spike following ramp current injection,[10],shortened the latency
same,resting membrane potential (RMP),[10],-47.5±2.5 mV
"IL-6: interleukin-6, a cytokine that evokes pain",spontaneous firing,[11],enhanced spontaneous firing
same,amplitudes of T-type voltage-gated calcium channels (VGCCs),"[12]; IL-6, eFT508 co-treatment",increased
same,latency to the first action potential in the ramp protocol,"[12]; IL-6, eFT508 pretreatment",lower
same,action potential firing in response to ramp depolarization,"[12]; one hr IL-6, eFT508 pretreatment followed by IL-6",increased action potential firing
B1,hind paw mechanical hypersensitivity,[7],increased hind paw mechanical hypersensitivity
same,mechanical hypersensitivity to von Frey filament stimulation,[7],rapid mechanical hypersensitivity
same,thermal hypersensitivity,[8],no significant changes
same,paw withdrawal latency to thermal stimulation,[8],no significant changes
same,AKT phosphorylation,[2],stimulated AKT phosphorylation
same,ERK and eIF4E phosphorylation,[2],increase
same,downstream JAK/STAT signaling pathways,[2],rapidly activated
same,BiP expression or signaling via PKR and downstream p-eIF2α,[2],did not modify
same,PKR phosphorylation,[2],did not modify
same,mTOR or ribosomal protein S6 phosphorylation,[2],did not observe any changes
same,phosphorylation of eIF4E (ICC),[9],stimulated phosphorylation of eIF4E

# Source: US20220226321A1, “INHIBITOR OF MNK FOR THE TREATMENT OF NEUROPATHIC PAIN” (Board of Regents, The University of Texas System, priority 2019, published 2022)
